Bridge positions count the residues as written; N and C are the ends. Peptide text beside a SMILES is read from it.
Key:
SW626 = assay: MTT cell viability, SW626 cells; assay type: cell-based, human; details: SW626 ovarian cells, p53 Mutant; MTT (Table 7); read-out: Cell Viability Assay
Procedure: (§1) Cell viability assay in several human cancer cell lines (See Tables 1 to 10). Cell lines were cultured in RPMI 1640 (or recommended medium when indicated) medium supplemented with 10% fetal calf serum, penicillin (50 IU/mL) and streptomycin ([…]) at 37° C. in 5% CO2. Cell viability studies was carried using the MTT (3-(4,5-dimethylthiazol-2-yl)-2,5-diphenyltetrazolium bromide) assay as previously described (31). Briefly, ≈2×10^3 CRC cells were be seeded in 96-well microtiter plates in 100 μL RPMI 1640 in the presence of 10% calf serum. […] After 1 h, 210 μL/well of full complemented media was added, the cells were grown for 48 h and then treated with 20 μL of a solution of MTT (5 mg/mL) for 2 h. The medium was discarded and DMSO ([…]) was added to each well and incubated with gentle shaking for 20 min at room temperature. The absorbance at 595 nm of the solution is analyzed using a Tecan Genios Multifunctional Microplate Reader (Tecan System Inc) and the background at 670 nm subtracted. RNA-Seq analysis was performed using state-of-the-art bioinformatics tools. Briefly, raw RNA-Seq reads were mapped to human genome (hg38) using STAR aligner (v2.7.3a). Gencode Release 36 reference was used for annotation. Transcript and gene expression levels were quantified using the IsoEM (37) with default parameters. Counts per million (CPM) method is used for normalization. Differential expression was done using DESeq2 with default parameters. Genes involved in different biological pathways (human) were searched from Geneontology (http://geneontology.org/). Bioinformatics results can be validated by using Partek Flow (v10.0.21.0912), a bioinformatics pipeline developed by Zymo Research (https://www.zymoresearch.com/).
(§2) Cell viability was evaluated using the MTT assay as described above.

A2780 = assay: MTT cell viability, A2780 ovarian cells; assay type: cell-based, human; details: p53 WT
Procedure: (§3) Cell viability assay in several human cancer cell lines (See Tables 1 to 10). Cell lines were cultured in RPMI 1640 (or recommended medium when indicated) medium supplemented with 10% fetal calf serum, penicillin (50 IU/mL) and streptomycin ([…]) at 37° C. in 5% CO2. Cell viability studies was carried using the MTT (3-(4,5-dimethylthiazol-2-yl)-2,5-diphenyltetrazolium bromide) assay as previously described (31). Briefly, ≈2×10^3 CRC cells were be seeded in 96-well microtiter plates in 100 μL RPMI 1640 in the presence of 10% calf serum. After 24 h incubation the cells were washed with PBS and treated with 30 μL/well of PBS or RPMI 1640 (or recommended) media containing cyclotides MCo-52, MCoTI-I (used as negative control), nutlin-3a (used as positive control) or MI-77301 (used as positive control for p53-mutated or p53-null cells) at the indicated doses for 1 h at 37° C. in 5% CO2. After 1 h, 210 μL/well of full complemented media was added, the cells were grown for 48 h and then treated with 20 μL of a solution of MTT (5 mg/mL) for 2 h. The medium was discarded and DMSO ([…]) was added to each well and incubated with gentle shaking for 20 min at room temperature. The absorbance at 595 nm of the solution is analyzed using a Tecan Genios Multifunctional Microplate Reader (Tecan System Inc) and the background at 670 nm subtracted. RNA-Seq analysis was performed using state-of-the-art bioinformatics tools. Briefly, raw RNA-Seq reads were mapped to human genome (hg38) using STAR aligner (v2.7.3a). Gencode Release 36 reference was used for annotation. Transcript and gene expression levels were quantified using the IsoEM (37) with default parameters. Counts per million (CPM) method is used for normalization. Differential expression was done using DESeq2 with default parameters. Genes involved in different biological pathways (human) were searched from Geneontology (http://geneontology.org/). Bioinformatics results can be validated by using Partek Flow (v10.0.21.0912), a bioinformatics pipeline developed by Zymo Research (https://www.zymoresearch.com/).
(§4) Tables 1 through 10 show in vitro activity of cyclotide MCo-52-2-cTAT against different human cancer cell lines, some with null-, mutated, or wildtype p53 phenotypes. Cell viability was evaluated using the MTT assay as described above.

NIHOVCAR3 = assay: MTT cell viability, NIHOVCAR3 ovarian cells; assay type: cell-based, human; details: p53 Mutant
Procedure: as §3, §4

SKOV 3 = assay: MTT cell viability, SKOV 3 ovarian cells; assay type: cell-based, human; details: p53 Mutant
Procedure: as §3, §4

ES-2 = assay: MTT cell viability, ES-2 ovarian cells; assay type: cell-based, human; details: p53 Mutant
Procedure: as §3, §4

Capan-1 = assay: MTT cell viability, Capan-1 cells; assay type: cell-based, human; details: Capan-1 pancreatic ductal adenocarcinoma, p53 Mutant
Procedure: as §1, §2

AsPC-1 = assay: MTT cell viability, AsPC-1 cells; assay type: cell-based, human; details: AsPC-1 pancreatic ductal adenocarcinoma, p53 Mutant
Procedure: as §1, §2

SW1990 = assay: MTT cell viability, SW1990 cells; assay type: cell-based, human; details: SW1990 pancreatic adenocarcinoma, p53 Mutant (Deletion)
Procedure: as §1, §2

BxPC-3 = assay: MTT cell viability, BxPC-3 cells; assay type: cell-based, human; details: BxPC-3 pancreatic ductal adenocarcinoma, p53 Mutant
Procedure: as §1, §2

MIA PaCa-2 = assay: MTT cell viability, MIA PaCa-2 cells; assay type: cell-based, human; details: MIA PaCa-2 pancreatic ductal adenocarcinoma, p53 Mutant
Procedure: as §1, §2

PANC-1 = assay: MTT cell viability, PANC-1 cells; assay type: cell-based, human; details: PANC-1 pancreatic ductal adenocarcinoma, p53 Mutant
Procedure: as §1, §2

HPAF-II = assay: MTT cell viability, HPAF-II cells; assay type: cell-based, human; details: HPAF-II pancreatic ductal adenocarcinoma, p53 Mutant
Procedure: as §1, §2

CFPAC-1 = assay: MTT cell viability, CFPAC-1 cells; assay type: cell-based, human; details: CFPAC-1 pancreatic ductal adenocarcinoma, p53 Mutant
Procedure: as §1, §2

LNCaP = assay: MTT cell viability, LNCaP cells; assay type: cell-based; details: LNCaP prostate carcinoma, p53 WT, read-out: Cell viability, Human Prostate Cancer Cells
Procedure: as §3, §4

DU145 = assay: MTT cell viability, DU145 cells; assay type: cell-based; details: DU145 prostate carcinoma, p53 Mutant, read-out: Cell viability, Human Prostate Cancer Cells
Procedure: as §3, §4

PC-3 = assay: MTT cell viability, PC-3 cells; assay type: cell-based; details: PC-3 prostate carcinoma, p53 Mutant, read-out: Cell viability, Human Prostate Cancer Cells
Procedure: as §3, §4

HCT116^+/+ = assay: MTT cell viability, HCT116 p53 wild-type cells; assay type: cell-based, human; details: Homo sapiens, HCT-116
Procedure: as §1, §2

HCT116^−/− = assay: MTT cell viability, HCT116 p53-null cells; assay type: cell-based, human; details: Homo sapiens, HCT-116
Procedure: as §1, with “Counts per million (CPM) method is used for normalization. Differential expression was done using DESeq2 with default parameters. Genes involved in different biological pathways (human) were searched from Geneontology (http://geneontology.org/). Bioinformatics results can be validated by using Partek Flow (v10.0.21.0912), a bioinformatics pipeline developed by Zymo Research (https://www.zymoresearch.com/).” left out
as §2

Caco-2 = assay: MTT cell viability, Caco-2 cells; assay type: cell-based, human; details: Homo sapiens, Caco-2 colon adenocarcinoma, p53 Mutant
Procedure: as §1, §2

SW480 = assay: MTT cell viability, SW480 cells; assay type: cell-based, human; details: Homo sapiens, SW480 colon adenocarcinoma, p53 Mutant
Procedure: as §1, §2

MSCLC 494 = assay: MTT cell viability, MSCLC 494 cells; assay type: cell-based; details: Mus musculus, MSCLC 494 murine small cell lung cancer
Procedure: as §1, §2

Jurkat = assay: MTT cell viability, Jurkat cells; assay type: cell-based, human; details: Homo sapiens, Jurkat childhood T acute lymphoblastic leukemia, p53 Mutant
Procedure: as §1, §2

U937 = assay: MTT cell viability, U937 cells; assay type: cell-based, human; details: Homo sapiens, U-937, U937 adult acute monocytic leukemia, p53 Mutant
Procedure: as §1, §2

MOLM-13 = assay: MTT cell viability, MOLM-13 cells; assay type: cell-based, human; details: Homo sapiens, MOLM-13 adult acute myeloid leukemia, p53 WT
Procedure: as §1, §2

MV4-11 = assay: MTT cell viability, MV4-11 cells; assay type: cell-based, human; details: Homo sapiens, MV4-11 childhood acute monocytic leukemia, p53 WT
Procedure: as §1, §2

NCl-A549 = assay: MTT cell viability, NCl-A549 cells; assay type: cell-based, human; details: Homo sapiens, NCl-A549 lung adenocarcinoma, p53 WT
Procedure: as §1, §2

NCl-H23 = assay: MTT cell viability, NCl-H23 cells; assay type: cell-based, human; details: Homo sapiens, NCl-H23 lung adenocarcinoma, p53 Mutant
Procedure: as §1, §2

NCl-H522 = assay: MTT cell viability, NCl-H522 cells; assay type: cell-based, human; details: Homo sapiens, NCl-H522 lung adenocarcinoma, p53 Mutant (Deletion)
Procedure: as §1, §2

NCl-H1299 = assay: MTT cell viability, NCl-H1299 cells; assay type: cell-based, human; details: Homo sapiens, NCl-H1299 lung large cell carcinoma, p53 Null
Procedure: as §1, §2

NCl-H69 = assay: MTT cell viability, NCl-H69 cells; assay type: cell-based, human; details: Homo sapiens, NCl-H69 lung small cell carcinoma, p53 Mutant
Procedure: as §1, §2

NCl-H526 = assay: MTT cell viability, NCl-H526 cells; assay type: cell-based, human; details: Homo sapiens, NCl-H526 lung small cell carcinoma, p53 Null
Procedure: as §1, §2

## CC[C@H](C)[C@@H]1NC(=O)[C@@H]2CSSC[C@@H]3NC(=O)[C@H](C(C)C)NC(=O)CNC(=O)CNC(=O)[C@H](CC(=O)O)NC(=O)[C@H](CO)NC(=O)CNC(=O)[C@H](CO)NC(=O)CNC(=O)[C@@H]4CSSC[C@H](NC(=O)[C@H](CC(=O)O)NC(=O)[C@H](CO)NC(=O)[C@H](CC(=O)O)NC(=O)[C@H](CCCNC(=N)N)NC(=O)[C@H](CCCNC(=N)N)NC(=O)[C@H](CSSC[C@H](NC1=O)C(=O)N[C@@H](CCCNC(=N)N)C(=O)N[C@@H](Cc1c[nH]cn1)C(=O)N[C@@H](CC(=O)O)C(=O)N[C@@H](CO)C(=O)N[C@@H](Cc1ccc(O)cc1)C(=O)N4)NC(=O)[C@H](CC(C)C)NC(=O)[C@H](CC(C)C)NC(=O)[C@H](Cc1ccc(O)cc1)NC(=O)[C@H](CC(C)C)NC(=O)[C@H](CC(N)=O)NC(=O)[C@@H]1CCCN1C3=O)C(=O)N1CCC[C@H]1C(=O)NCC(=O)N[C@@H](C)C(=O)N2 [Cyclotide 52-2] (cyclo(ACICRHDSYCGSGSDGGVCPNLYLLCRRDSDCPG); disulfide 2-19, 4-26, 10-32)
SW626
  EC50: > 100 µM
A2780
  EC50: > 100 µM
NIHOVCAR3
  EC50: > 100 µM
SKOV 3
  EC50: > 100 µM
ES-2
  EC50: > 100 µM
Capan-1
  EC50: > 100 µM
AsPC-1
  EC50: > 100 µM
SW1990
  EC50: > 100 µM
BxPC-3
  EC50: > 100 µM
MIA PaCa-2
  EC50: > 100 µM
PANC-1
  EC50: > 100 µM
HPAF-II
  EC50: > 100 µM
CFPAC-1
  EC50: > 100 µM
LNCaP
  EC50: > 100 µM
DU145
  EC50: > 100 µM
PC-3
  EC50: > 100 µM

## CC(C)(C)C[C@@H]1N[C@@H](C(=O)N[C@H]2CC[C@H](O)CC2)[C@H](c2cccc(Cl)c2F)[C@]12C(=O)Nc1cc(Cl)ccc12 [MI-77301]
HCT116^+/+
  EC50: 2.7 ± 0.2 µM
HCT116^−/−
  EC50: 23.7 ± 1.9 µM
Caco-2
  EC50: > 50 µM
SW480
  EC50: 26.1 ± 3.3 µM
MSCLC 494
  EC50: 15.8 ± 2.2 µM
Jurkat
  EC50: 12.1 ± 1.6 µM
U937
  EC50: 9.6 ± 2.2 µM
MOLM-13
  EC50: 0.7 ± 0.1 µM
MV4-11
  EC50: 0.3 ± 0.03 µM
NCl-A549
  EC50: 15.8 ± 2.2 µM
NCl-H23
  EC50: 10.7 ± 1.9 µM
NCl-H522
  EC50: 22.7 ± 2.8 µM
NCl-H1299
  EC50: 21.5 ± 2.5 µM
NCl-H69
  EC50: 31.7 ± 5.2 µM
NCl-H526
  EC50: 9.7 ± 1.8 µM
BxPC-3; Homo sapiens
  EC50: 17.3 ± 2.3 µM
MIA PaCa-2; Homo sapiens
  EC50: 10.5 ± 1.6 µM
PANC-1; Homo sapiens
  EC50: 12.7 ± 1.6 µM
HPAF-II; Homo sapiens
  EC50: 6.7 ± 1 µM
CFPAC-1; Homo sapiens
  EC50: 22.1 ± 1.6 µM

Source: patent publication US20250325684A1, “POTENT ANTI-CANCER CYCLOTIDES” (University of Southern California, priority 2022, published 2025)
